Data: PubChem BioAssay AID2060904 (Molecular Pharmacology Branch, DTP, NCI, 2025)

Tested on: 349418-098-R-PDC complex spheroid viability
Assay: Anticancer human tumor 349418-098-R-PDC patient-derived lung adenocarcinoma cell line growth inhibition [RAS]
Settings: for IC50: curve of first compound; for viability, T/C: stronger effect = lower value
From the text: RAS pathway inhibitors in Combinations in Complex Spheroids
A high-throughput screen of multi-cell type tumor spheroids was designed to identify active combinations of RAS pathway inhibitors and targeted small molecules. Complex spheroids include a stromal component modeled by human endothelial cells (HUVEC) and fibroblasts modeled by human mesenchymal stem cells (MSCs). The concentration ranges selected for each drug and investigational agent were based upon clinically achievable concentrations if the clinical Cmax of the agent was known.
Compounds. The drugs and investigational agents: abemaciclib (NSC768073), cobimetinib (NSC768068), divarasib (GDC6063, NSC841802), docetaxel (NSC628503), GDC-1971 (RLY-1971, NSC841576), gemcitabine (NSC613327), inavolisib (NSC800729), ipatasertib (NSC767898), KB-0742 (NSC834161), MRTX-1133 (NSC836407), osimertinib (NSC779217), RMC-4630 (NSC839698), RMC-6236 (NSC851965), RMC-6291 (NSC852671), Ro-3306 (NSC812927), sapanisertib (NSC764658), SN-38 (NSC673596), staurosporine (NSC755774), SY5609 (NSC837396), and tovorafenib (DAY101, NSC766906), were obtained from the National Cancer Institute (NCI) Developmental Therapeutics Program Chemical Repository. The FDA-approved anticancer drug set is available from the NCI Developmental Therapeutics Program. […] The stock solutions were prepared in dimethyl sulfoxide (DMSO, Sigma-Aldrich, St. Louis, MO, cat. D2650) at 800-fold the tested concentration and stored at -70 degrees C prior to their use. All drugs and investigational agents were tested over a range starting from a high concentration at or near the clinical Cmax and decreasing in half-log increments. If the clinical Cmax for an agent had not been determined, the highest concentration tested was 10 microM.
Cell Culture. All cells were maintained in an incubator at 37 degrees C and 5% CO2 with 95% humidity. The PDC lines were cultured according to standard operating procedures established by the NCI PDMR. All PDCs were thawed and cultured in Matrigel-coated flasks prepared with a working solution of 1X Ham's F-12 nutrient mix, without supplementation (Invitrogen, Waltham, MA, cat. 11765054), 100 U/mL penicillin-streptomycin (Invitrogen, cat. 15140122), and 2.5% Matrigel (Corning Inc., Corning, NY, cat. 354248) for the first three passages. The 362531-283-R-J2-PDC and 782815-120-R-J1-PDC lines were cultured in 6C/Colon 1B media, which includes advanced DMEM/F-12 (Thermo Fisher Scientific, cat. 12634028), 10 mM HEPES (Thermo Fisher Scientific, cat. 15630080), 1X GlutaMAX supplement (Thermo Fisher Scientific, cat. 35050061), 0.1 mg/mL primocin (InvivoGen, San Diego, CA, cat. ant-pm-2), 10% defined fetal bovine serum, heat inactivated (HyClone Laboratories Inc., Logan, UT, cat. SH30070.03HI), 50% L-WRN conditioned media (ATCC, cat. CRL-3276), 1.25 mM N-Acetyl-L-cysteine (Sigma-Aldrich, cat. A9165), 10 mM nicotinamide (Sigma-Aldrich, cat. N0636), 1X B-27 supplement (Thermo Fisher Scientific, cat. 17504044), 1X N-2 supplement (Thermo Fisher Scientific, cat. 17502048), 50 ng/mL human EGF (Thermo Fisher Scientific, cat. PHG0311), and 10 microM Y-27632 dihydrochloride (Tocris Bioscience, cat. 1254). The K12877-001-R-J1-PDC line was cultured in 6I media, which includes all 6C/Colon 1B media plus 10 ng/mL human FGF-10 (PeproTech, cat. 100-26), 1 ng/mL human FGF-2 (PeproTech, cat. 100-18B), 1 µM prostaglandin E2 (Tocris Bioscience, cat. 2296), […] hydrocortisone (Sigma-Aldrich, cat. H4001), and […] bovine insulin (Sigma-Aldrich, cat. I6634). The K86415-001-R-J1-PDC line was cultured in 6D media, which includes all 6C/Colon 1B media components minus the L-WRN conditioned media. The 485176-168-R4-J1-PDC was cultured in PANC media, which includes all 6C/Colon 1B media plus 100 ng/mL human FGF-10 (PeproTech, cat. 100-26), 500 nM SB-431542 (Selleckchem, cat. S1067), and 10 nM gastrin (Tocris Bioscience, cat. 3006). […]
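Also: spheroids exposed to compound for seven days before viability readout.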

Question: `C=CC(=O)Nc1cc(Nc2nccc(-c3cn(C)c4ccccc34)n2)c(OC)cc1N(C)CCN(C)C` + C#Cc1c(F)ccc2cc(O)cc(-c3ncc4c(N5CC6CCC(C5)N6)nc(OCC56CCCN5CC(F)C6)nc4c3F)c12 was tested. Which IC50 (second compound 0.0316 µM) did it give?
Answer: > 1000 nM

Question: And the IC50 (second compound 0.1 µM)?
Answer: > 1000 nM

Question: What about the IC50 (second compound 0.316 µM) of the same molecule?
Answer: > 1000 nM

Question: And the IC50 (second compound 1 µM)?
Answer: > 1000 nM

Question: And the IC50 (second compound 3.16 µM)?
Answer: > 1000 nM

Question: And the IC50 (second compound 10 µM)?
Answer: 465 nM

Question: What about the viability, T/C (second compound 0.0316 µM, first compound 0.00316 µM) of the same molecule?
Answer: 97.1%

Question: What about the viability, T/C (second compound 0.0316 µM, first compound 0.01 µM) of the same molecule?
Answer: 130%

Question: What about the viability, T/C (second compound 0.0316 µM, first compound 0.0316 µM) of the same molecule?
Answer: 95.5%

Question: What about the viability, T/C (second compound 0.0316 µM, first compound 0.1 µM) of the same molecule?
Answer: 86.1%

Question: What about the viability, T/C (second compound 0.0316 µM, first compound 0.316 µM) of the same molecule?
Answer: 84.3%

Question: What about the viability, T/C (second compound 0.0316 µM, first compound 1 µM) of the same molecule?
Answer: 92.3%

Question: What about the viability, T/C (second compound 0.1 µM, first compound 0.00316 µM) of the same molecule?
Answer: 93.5%

Question: What about the viability, T/C (second compound 0.1 µM, first compound 0.01 µM) of the same molecule?
Answer: 125%

Question: What about the viability, T/C (second compound 0.1 µM, first compound 0.0316 µM) of the same molecule?
Answer: 82.3%

Question: What about the viability, T/C (second compound 0.1 µM, first compound 0.1 µM) of the same molecule?
Answer: 68.3%

Question: And the viability, T/C (second compound 0.1 µM, first compound 0.316 µM)?
Answer: 80.2%

Question: And the viability, T/C (second compound 0.1 µM, first compound 1 µM)?
Answer: 66.5%

Question: And the viability, T/C (second compound 0.316 µM, first compound 0.00316 µM)?
Answer: 86.7%

Question: And the viability, T/C (second compound 0.316 µM, first compound 0.01 µM)?
Answer: 119%

Question: What about the viability, T/C (second compound 0.316 µM, first compound 0.0316 µM) of the same molecule?
Answer: 85.8%

Question: And the viability, T/C (second compound 0.316 µM, first compound 0.1 µM)?
Answer: 86.2%

Question: And the viability, T/C (second compound 0.316 µM, first compound 0.316 µM)?
Answer: 89.5%

Question: And the viability, T/C (second compound 0.316 µM, first compound 1 µM)?
Answer: 95.7%

Question: What about the viability, T/C (second compound 1 µM, first compound 0.00316 µM) of the same molecule?
Answer: 80.2%

Question: What about the viability, T/C (second compound 1 µM, first compound 0.01 µM) of the same molecule?
Answer: 121%

Question: And the viability, T/C (second compound 1 µM, first compound 0.0316 µM)?
Answer: 85.3%

Question: And the viability, T/C (second compound 1 µM, first compound 0.1 µM)?
Answer: 73.1%

Question: And the viability, T/C (second compound 1 µM, first compound 0.316 µM)?
Answer: 89.2%

Question: What about the viability, T/C (second compound 1 µM, first compound 1 µM) of the same molecule?
Answer: 82.5%

Question: What about the viability, T/C (second compound 3.16 µM, first compound 0.00316 µM) of the same molecule?
Answer: 73.6%

Question: And the viability, T/C (second compound 3.16 µM, first compound 0.01 µM)?
Answer: 91.2%

Question: What about the viability, T/C (second compound 3.16 µM, first compound 0.0316 µM) of the same molecule?
Answer: 84.9%

Question: And the viability, T/C (second compound 3.16 µM, first compound 0.1 µM)?
Answer: 82.8%

Question: And the viability, T/C (second compound 3.16 µM, first compound 0.316 µM)?
Answer: 67.6%

Question: What about the viability, T/C (second compound 3.16 µM, first compound 1 µM) of the same molecule?
Answer: 86.4%

Question: And the viability, T/C (second compound 10 µM, first compound 0.00316 µM)?
Answer: 55.6%

Question: And the viability, T/C (second compound 10 µM, first compound 0.01 µM)?
Answer: 62%

Question: What about the viability, T/C (second compound 10 µM, first compound 0.0316 µM) of the same molecule?
Answer: 88.9%

Question: What about the viability, T/C (second compound 10 µM, first compound 0.1 µM) of the same molecule?
Answer: 65.2%

Question: And the viability, T/C (second compound 10 µM, first compound 0.316 µM)?
Answer: 72.9%

Question: What about the viability, T/C (second compound 10 µM, first compound 1 µM) of the same molecule?
Answer: 12.4%
